Values joined by “and” are separate entries in the source; they are usually repeats but may differ in a detail not shown here. Equal values may be shown once. Inconclusive results and toxic doses are left out. No stated cut-off is given here; in the data, active means T/C of 150% or more; inactive means T/C below 125%.
Tested on: L1210 leukemia ip in BDF1 mice, survival T/C
Experiment: NCI In Vivo Anticancer Drug Screen. Data for tumor model L1210 Leukemia (intraperitoneal) in B6D2F1 (BDF1) mice
Conditions: endpoint: mean survival time, higher = longer survival
How it was run: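 In this screen, tumor-bearing mice given compound are compared to those given vehicle, and their survival values are reported as a treated-to-control quotient.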

[1] = dose: 100.0 mg/kg/injection, schedule: Q01DX001 (ip), vehicle: acetone
[2] = dose: 100.0 mg/kg/injection, schedule: Q04DX003 (ip), vehicle: saline
[3] = dose: 200.0 mg/kg/injection, schedule: Q01DX001 (ip), vehicle: acetone
[4] = dose: 200.0 mg/kg/injection, schedule: Q04DX003 (ip), vehicle: saline
[5] = dose: 400.0 mg/kg/injection, schedule: Q01DX001 (ip), vehicle: acetone
[6] = dose: 400.0 mg/kg/injection, schedule: Q04DX003 (ip), vehicle: saline
[7] = dose: 100.0 mg/kg/injection, schedule: Q04DX003 (ip), vehicle: acetone
[8] = dose: 200.0 mg/kg/injection, schedule: Q04DX003 (ip), vehicle: acetone
[9] = dose: 400.0 mg/kg/injection, schedule: Q04DX003 (ip), vehicle: acetone
[10] = dose: 100.0 mg/kg/injection, schedule: Q01DX009 (ip), vehicle: saline with Tween-80
[11] = dose: 200.0 mg/kg/injection, schedule: Q01DX009 (ip), vehicle: saline with Tween-80
[12] = dose: 100.0 mg/kg/injection, schedule: Q04DX003 (ip), vehicle: Klucel (hydroxypropylcellulose) (HPC)
[13] = dose: 200.0 mg/kg/injection, schedule: Q04DX003 (ip), vehicle: Klucel (hydroxypropylcellulose) (HPC)
[14] = dose: 400.0 mg/kg/injection, schedule: Q04DX003 (ip), vehicle: Klucel (hydroxypropylcellulose) (HPC)
[15] = dose: 5.0 mg/kg/injection, schedule: Q01DX001 (ip), vehicle: saline
[16] = dose: 10.0 mg/kg/injection, schedule: Q01DX001 (ip), vehicle: saline
[17] = dose: 20.0 mg/kg/injection, schedule: Q01DX001 (ip), vehicle: saline
[18] = dose: 100.0 mg/kg/injection, schedule: Q01DX009 (ip), vehicle: Klucel (hydroxypropylcellulose) (HPC)
[19] = dose: 200.0 mg/kg/injection, schedule: Q01DX009 (ip), vehicle: Klucel (hydroxypropylcellulose) (HPC)
[20] = dose: 400.0 mg/kg/injection, schedule: Q01DX009 (ip), vehicle: Klucel (hydroxypropylcellulose) (HPC)

Measured: T/C

Cc1cc(C)c(C)c(C(=O)O)c1C
inactive: [1] 98 % of control | dose: 100.0 mg/kg/injection, schedule: Q01DX009 (ip), vehicle: acetone 101 % of control | [2] 88 % of control | [3] 89 % of control | dose: 200.0 mg/kg/injection, schedule: Q01DX009 (ip), vehicle: acetone 106 % of control | [4] 102 % of control | [5] 94 % of control | dose: 400.0 mg/kg/injection, schedule: Q01DX009 (ip), vehicle: acetone 105 % of control | [6] 112 % of control

Cc1ccc([N+](=O)[O-])cc1P(=O)(O)c1cc([N+](=O)[O-])ccc1C
inactive: [1] 94 % of control | [7] 103 % of control | [3] 94 % of control | [8] 92 % of control | [5] 93 % of control | [9] 100 % of control

CCOC(=O)c1[nH]cnc1/N=N/N(C1CCCCC1)C1CCCCC1
inactive: dose: 50.0 mg/kg/injection, schedule: Q01DX001 (ip), vehicle: other 94 % of control | dose: 100.0 mg/kg/injection, schedule: Q01DX001 (ip), vehicle: other 97 % of control | dose: 200.0 mg/kg/injection, schedule: Q01DX001 (ip), vehicle: other 102 % of control | dose: 400.0 mg/kg/injection, schedule: Q01DX001 (ip), vehicle: other 92 % of control

CCOC(=O)NCCc1ccc(OC)c(OC)c1
inactive: [10] 92 % of control | dose: 100.0 mg/kg/injection, schedule: Q04DX003 (ip), vehicle: saline with Tween-80 97 % of control | [11] 91 % of control | dose: 200.0 mg/kg/injection, schedule: Q04DX003 (ip), vehicle: saline with Tween-80 112 % of control | dose: 400.0 mg/kg/injection, schedule: Q01DX009 (ip), vehicle: saline with Tween-80 96 % of control | dose: 400.0 mg/kg/injection, schedule: Q04DX003 (ip), vehicle: saline with Tween-80 102 % of control

CC(=O)N/N=C(/C)C(=O)O
inactive: dose: 50.0 mg/kg/injection, schedule: Q01DX009 (ip), vehicle: water 100 % of control | dose: 100.0 mg/kg/injection, schedule: Q01DX009 (ip), vehicle: water 100 % of control | dose: 100.0 mg/kg/injection, schedule: Q04DX003 (ip), vehicle: water 97 % of control | dose: 200.0 mg/kg/injection, schedule: Q04DX003 (ip), vehicle: water 106 % of control

ClC(c1ccccc1)c1ccc(Br)cc1 (centres undefined)
inactive: [12] 108 % of control | [13] 101 % of control | [14] 90 % of control

NC(=O)c1ccc[n+](CC(=O)NCc2ccc(Cl)cc2)c1
inactive: [2] 93 % of control

Cc1ccc(N=Nc2c(O)ccc3ccccc23)cc1
inactive: dose: 50.0 mg/kg/injection, schedule: Q01DX001 (ip), vehicle: carboxymethylcellulose (CMC) 91 % of control | dose: 100.0 mg/kg/injection, schedule: Q01DX001 (ip), vehicle: carboxymethylcellulose (CMC) 91 % of control | dose: 200.0 mg/kg/injection, schedule: Q01DX001 (ip), vehicle: carboxymethylcellulose (CMC) 91 % of control | dose: 400.0 mg/kg/injection, schedule: Q01DX001 (ip), vehicle: carboxymethylcellulose (CMC) 91 % of control

CCC(C)CNC(C)=O (centres undefined)
inactive: [2] 109 % of control | [4] 106 % of control | [6] 109 % of control

CCCCNc1nc(N)nc(Nc2ccc(Br)cc2)c1N=O
inactive: [1] 103 % of control | [7] 93 % of control | [3] 100 % of control | [8] 94 % of control | [5] 106 % of control | [9] 100 % of control

CC1CCCC[N-]1.CC1CCCC[N-]1.N#C[S-].N#C[S-].[Cu] (centres undefined)
inactive: [15] 94 % of control | [16] 86 % of control | [17] 91 % of control | dose: 40.0 mg/kg/injection, schedule: Q01DX001 (ip), vehicle: saline 100 % of control

Oc1ccc2ccccc2c1Cc1cccc2ccccc12
inactive: [10] 90 % of control | [11] 95 % of control

c1ccc(CCCCCCCCCCc2ccccc2)cc1
inactive: dose: 100.0 mg/kg/injection, schedule: Q01DX001 (ip), vehicle: saline with Tween-80 91 % of control | dose: 200.0 mg/kg/injection, schedule: Q01DX001 (ip), vehicle: saline with Tween-80 95 % of control | dose: 400.0 mg/kg/injection, schedule: Q01DX001 (ip), vehicle: saline with Tween-80 98 % of control

COC(=O)C1OC1C(=O)OC (centres undefined)
inactive: [18] 91 % of control | dose: 100.0 mg/kg/injection, schedule: Q01DX009 (ip), vehicle: saline 101 % of control | [19] 96 % of control | dose: 200.0 mg/kg/injection, schedule: Q01DX009 (ip), vehicle: saline 100 % of control | [20] 102 % of control | dose: 400.0 mg/kg/injection, schedule: Q01DX009 (ip), vehicle: saline 92 % of control

O=C(CC(c1ccccc1)c1ccccc1)NS(=O)(=O)c1ccccc1
inactive: [12] 94 % of control | [13] 97 % of control | [14] 97 % of control

CCOC(=O)Nc1ccc([N+](=O)[O-])cc1
inactive: [18] 87 % of control | [12] 99 % of control | [19] 99 % of control | [13] 110 % of control | [20] 97 % of control | [14] 89 % of control

CN1C=c2c3c(ccc2=C2C=CC4C=C5OCOC5=CC4=C21)OCO3 (centres undefined)
inactive: dose: 2.0 mg/kg/injection, schedule: Q01DX015 (ip), vehicle: saline 97 % of control | dose: 4.0 mg/kg/injection, schedule: Q01DX015 (ip), vehicle: saline 91 % of control | [15] 96 % of control | dose: 6.25 mg/kg/injection, schedule: Q04DX003 (ip), vehicle: saline 92 % of control | dose: 7.5 mg/kg/injection, schedule: Q01DX009 (ip), vehicle: saline 97 % of control | dose: 8.0 mg/kg/injection, schedule: Q01DX015 (ip), vehicle: saline 92 % of control | [16] 96 % of control | dose: 12.5 mg/kg/injection, schedule: Q04DX003 (ip), vehicle: saline 88 % of control | dose: 15.0 mg/kg/injection, schedule: Q01DX009 (ip), vehicle: saline 100 % of control | dose: 16.0 mg/kg/injection, schedule: Q01DX015 (ip), vehicle: saline 100 % of control | [17] 94 % of control | dose: 25.0 mg/kg/injection, schedule: Q04DX003 (ip), vehicle: saline 95 % of control and 90 % of control | dose: 30.0 mg/kg/injection, schedule: Q01DX009 (ip), vehicle: saline 102 % of control

NC(=S)NNC1CCCCC1
inactive: dose: 22.0 mg/kg/injection, schedule: Q01DX Z (ip), vehicle: methylcellulose (MC) 94 % of control | dose: 33.0 mg/kg/injection, schedule: Q01DX Z (ip), vehicle: methylcellulose (MC) 117 % of control | dose: 50.0 mg/kg/injection, schedule: Q01DX Z (ip), vehicle: methylcellulose (MC) 93 % of control

CCOC(=O)Cn1c(=O)c2ccccc2c2ccccc21
inactive: [12] 97 % of control | [13] 104 % of control | [14] 101 % of control
